Where “and” joins values, the source holds several entries; their conditions need not be identical. Equal entries are not always repeated.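 Values below derive from 48-hour exposures of cells grown in 96-well plates, with endpoints linearly interpolated between the two concentrations bracketing the appropriate inhibition level. GI50 marks 50% less growth. TGI denotes the concentration required for complete inhibition of growth.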
Legend:
Test in all cases: NCI-60 cell line screen, 48 h
CAKI-1 renal = test system: CAKI-1 renal
CCRF-CEM leukemia = test system: CCRF-CEM leukemia
MDA-MB-231 breast = test system: MDA-MB-231 breast
HL-60(TB) leukemia = test system: HL-60(TB) leukemia
SNB-19 CNS = test system: SNB-19 CNS
NCI-H522 lung = test system: NCI-H522 lung
UO-31 renal = test system: UO-31 renal
HCT-15 colon = test system: HCT-15 colon
786-0 renal = test system: 786-0 renal
MCF7 breast = test system: MCF7 breast
KM12 colon = test system: KM12 colon
HCC-2998 colon = test system: HCC-2998 colon
IGROV1 ovarian = test system: IGROV1 ovarian
HOP-92 NSCLC = test system: HOP-92 NSCLC
A498 renal = test system: A498 renal
MOLT-4 leukemia = test system: MOLT-4 leukemia
SN12C renal = test system: SN12C renal
SK-MEL-28 melanoma = test system: SK-MEL-28 melanoma
HCT-116 colon = test system: HCT-116 colon
OVCAR-5 ovarian = test system: OVCAR-5 ovarian
SF-268 CNS = test system: SF-268 CNS
SNB-75 CNS = test system: SNB-75 CNS
SF-295 CNS = test system: SF-295 CNS
LOX IMVI melanoma = test system: LOX IMVI melanoma
MALME-3M melanoma = test system: MALME-3M melanoma
HT29 colon = test system: HT29 colon
TK-10 renal = test system: TK-10 renal
RPMI-8226 leukemia = test system: RPMI-8226 leukemia
T-47D breast = test system: T-47D breast
NCI-H460 lung = test system: NCI-H460 lung
SK-MEL-5 melanoma = test system: SK-MEL-5 melanoma
M14 melanoma = test system: M14 melanoma
EKVX NSCLC = test system: EKVX NSCLC
K-562 leukemia = test system: K-562 leukemia
A549 NSCLC = test system: A549 NSCLC
HOP-62 NSCLC = test system: HOP-62 NSCLC
NCI-H23 lung = test system: NCI-H23 lung
SW-620 colon = test system: SW-620 colon
RXF 393 renal = test system: RXF 393 renal
BT-549 breast = test system: BT-549 breast
UACC-257 melanoma = test system: UACC-257 melanoma
ACHN renal = test system: ACHN renal
U251 CNS = test system: U251 CNS
NCI-H226 lung = test system: NCI-H226 lung
PC-3 prostate = test system: PC-3 prostate
SF-539 CNS = test system: SF-539 CNS
DU-145 prostate = test system: DU-145 prostate
OVCAR-3 ovarian = test system: OVCAR-3 ovarian
MDA-MB-435 = test system: MDA-MB-435
OVCAR-4 ovarian = test system: OVCAR-4 ovarian
COLO 205 colon = test system: COLO 205 colon
HS 578T breast = test system: HS 578T breast
SK-MEL-2 melanoma = test system: SK-MEL-2 melanoma
OVCAR-8 ovarian = test system: OVCAR-8 ovarian
NCI/ADR-RES ovarian = test system: NCI/ADR-RES ovarian
UACC-62 melanoma = test system: UACC-62 melanoma
SR leukemia = test system: SR leukemia

In the case of `Oc1[nH]c2c(Br)cccc2c1C1=Nc2ccccc2/C1=N/OCCN1CCCC1`, the GI50 (CAKI-1 renal) is reported as 332 nM, the TGI (CAKI-1 renal) is reported as 2240 nM and the GI50 (CCRF-CEM leukemia) is reported as 741 nM and 1120 nM. For the same compound, the GI50 (MDA-MB-231 breast) was 1310 nM and 1210 nM, the TGI (MDA-MB-231 breast) was 4.95 µM and 7.97 µM and the GI50 (HL-60(TB) leukemia) was 1040 nM and 998 nM. For the same compound, the GI50 (SNB-19 CNS) was 1930 nM, the GI50 (NCI-H522 lung) was 847 nM and the TGI (NCI-H522 lung) was 3.4 µM. The GI50 (UO-31 renal) was 440 nM, the TGI (UO-31 renal) was 4.97 µM and the GI50 (HCT-15 colon) was 719 nM and 496 nM. For the same compound, the GI50 (786-0 renal) was 648 nM and 942 nM, the TGI (786-0 renal) was 2.58 µM and 4.31 µM and the GI50 (MCF7 breast) was 781 nM and 570 nM. The TGI (MCF7 breast) was over 100 µM, the GI50 (KM12 colon) was 708 nM and 501 nM and the TGI (KM12 colon) was over 100 µM. For the same compound, the GI50 (HCC-2998 colon) was 1000 nM, the TGI (HCC-2998 colon) was 6.18 µM and the GI50 (IGROV1 ovarian) was 469 nM. For the same compound, the TGI (IGROV1 ovarian) was 2980 nM, the GI50 (HOP-92 NSCLC) was 1040 nM and the TGI (HOP-92 NSCLC) was 3.12 µM. For the same compound, the GI50 (A498 renal) was 739 nM and 1340 nM, the TGI (A498 renal) was 2.21 µM and 7.36 µM and the GI50 (MOLT-4 leukemia) was 354 nM. For the same compound, the TGI (MOLT-4 leukemia) was 3.18 µM, the GI50 (SN12C renal) was 740 nM and the TGI (SN12C renal) was 4.99 µM and 8.59 µM. For the same compound, the GI50 (SK-MEL-28 melanoma) was 1920 nM, the TGI (SK-MEL-28 melanoma) was 5.49 µM and the GI50 (HCT-116 colon) was 448 nM. The TGI (HCT-116 colon) was 1780 nM, the GI50 (OVCAR-5 ovarian) was 1210 nM and 1910 nM and the TGI (OVCAR-5 ovarian) was 4.82 µM and 14.7 µM. For the same compound, the GI50 (SF-268 CNS) was 813 nM, the GI50 (SNB-75 CNS) was 1140 nM and the TGI (SNB-75 CNS) was 3.64 µM. The GI50 (SF-295 CNS) was 638 nM, the TGI (SF-295 CNS) was 3.69 µM and the GI50 (LOX IMVI melanoma) was 626 nM. For the same compound, the TGI (LOX IMVI melanoma) was 2450 nM, the GI50 (MALME-3M melanoma) was 1160 nM and the TGI (MALME-3M melanoma) was 4.84 µM. For the same compound, the GI50 (HT29 colon) was 561 nM, the TGI (HT29 colon) was 6.6 µM and the GI50 (TK-10 renal) was 2580 nM and 1800 nM. For the same compound, the TGI (TK-10 renal) was over 100 µM, the GI50 (RPMI-8226 leukemia) was 1350 nM and 1590 nM and the GI50 (T-47D breast) was 3.51 µM. For the same compound, the GI50 (NCI-H460 lung) was 325 nM, the TGI (NCI-H460 lung) was 2400 nM and the GI50 (SK-MEL-5 melanoma) was 1060 nM and 751 nM. For the same compound, the GI50 (M14 melanoma) was 1940 nM, the GI50 (EKVX NSCLC) was 1310 nM and 2090 nM and the TGI (EKVX NSCLC) was over 100 µM. It also gave a GI50 (K-562 leukemia) of 424 nM, a GI50 (A549 NSCLC) of 1910 nM and a GI50 (HOP-62 NSCLC) of 704 nM. The TGI (HOP-62 NSCLC) was 2650 nM, the GI50 (NCI-H23 lung) was 1020 nM and 959 nM and the TGI (NCI-H23 lung) was 4.17 µM and 36.5 µM. The GI50 (SW-620 colon) was 1490 nM and 542 nM, the GI50 (RXF 393 renal) was 942 nM and the TGI (RXF 393 renal) was 9.66 µM. The GI50 (BT-549 breast) was 1240 nM, the TGI (BT-549 breast) was 2850 nM and the GI50 (UACC-257 melanoma) was 2670 nM. The GI50 (ACHN renal) was 414 nM and 379 nM, the TGI (ACHN renal) was 2120 nM and 3800 nM and the GI50 (U251 CNS) was 1090 nM. For the same compound, the TGI (U251 CNS) was 2770 nM, the GI50 (NCI-H226 lung) was 948 nM and 708 nM and the TGI (NCI-H226 lung) was 3.05 µM and 29.1 µM. It also gave a GI50 (PC-3 prostate) of 824 nM, a GI50 (SF-539 CNS) of 557 nM and a TGI (SF-539 CNS) of 2050 nM. For the same compound, the GI50 (DU-145 prostate) was 688 nM, the TGI (DU-145 prostate) was 4.31 µM and the GI50 (OVCAR-3 ovarian) was 1480 nM. The TGI (OVCAR-3 ovarian) was 3.45 µM, the GI50 (MDA-MB-435) was 1580 nM and 1910 nM and the TGI (MDA-MB-435) was over 100 µM. It also gave a GI50 (OVCAR-4 ovarian) of 1140 nM, a TGI (OVCAR-4 ovarian) of 3.35 µM and a GI50 (COLO 205 colon) of 524 nM. It also gave a TGI (COLO 205 colon) of 4.81 µM, a GI50 (HS 578T breast) of 1200 nM and a TGI (HS 578T breast) of 3 µM. The GI50 (SK-MEL-2 melanoma) was 2210 nM, the GI50 (OVCAR-8 ovarian) was 792 nM and the GI50 (NCI/ADR-RES ovarian) was 793 nM and 766 nM. The GI50 (UACC-62 melanoma) was 973 nM, the TGI (UACC-62 melanoma) was 2450 nM and the GI50 (SR leukemia) was 373 nM. The TGI (SR leukemia) was 1770 nM.

— PubChem BioAssay (NCI)
